Each block holds one molecule with its values, some of them ahead of it.
Target: T1, human recombinant mGluR5 (Homo sapiens, UniProt P41594)
T1 construct: expressed in transfected cells; host or cells: HEK 293
Assay: positive modulation of mGluR5, calcium based FLIPR assay
Conditions: HEK 293 cell line expressing human recombinant mGluR5; EC50 of the modulation from peak Ca fluorescence signal after glutamate at approx. 5% basal stimulation
Method: The positive modulation of mGluR5 is measured in a HEK 293 cell line expressing human recombinant mGluR5 and is detected with calcium based FLIPR assay. The cells are cultured with DMEM supplemented with 10% FCS, 2 μg/mL tetracycline, 100 μg/mL hygromycin and 500 μg/mL geneticin. The cell culture media is exchanged for tetracycline-free cell culture media 3-7 days before the assay. One day before the assay the cell culture medium is exchanged to DMEM without glutamine and phenol red and supplemented with 10% FCS, 100 μg/mL hygromycin and 500 μg/mL geneticin. On the assay day, the medium of the subconfluent cultures is removed and the cells are detached by addition of 2.5 ml EDTA (0.02%) per 175 cm2 culture flask for 1 minute. The cells are resuspend in Ringer solution (140 mM NaCl, 5 mM KCl, 2.5 mM CaCl2, 1.5 mM MgCl2, 5 mM Glucose, 10 mM Hepes; adjusted to pH 7.4 with NaOH), pooled and Ringer solution added to adjust the volume to 50 mL. The cell suspension is centrifuged for […] at 1500 U/min (425 g). The supernatant is removed and the cells washed a second time with 50 ml fresh Ringer solution and centrifuged again as before. The supernatant is again removed and the pellet resuspended in Ringer solution to 1,000,000 cells/ml (1×10^6 cells/mL). The cells are plated onto BD BioCoat Poly-D-Lysine 384 well plates (20.000 cells/well; 20 μl/well). The lid covered plates are then incubated until use at 37° C./10% CO2. For dye loading, 20 μl of Calcium-4 assay kit solution (prepared according to the manufacturer's description in Ringer solution) are added to the cells and the plates are incubated for […] 37° C. and then […] at room temperature.
Controls, Compound Dilution and Assay Execution:
Each assay plate contained wells with “high” and “low” controls:
Low controls 1% DMSO/ringer solution+basal glutamate activation (defined as 100% CTL).
High controls 10 μM CDPPB+basal glutamate activation (defined as 200% CTL).
Test compounds are dissolved and diluted in DMSO to 100-fold the desired concentrations. In a second step, the compounds are diluted in Ringer solution such that the compounds are 4-fold more concentrated than the desired final assay concentration. The final DMSO concentration was 1%.
20 μl of each compound solution are then transferred to the assay plate and the Ca2+ kinetic is measured to determine any intrinsic compound activity. After 5 mM incubation in the FLIPR device, the second stimulation with 20 μl of glutamate in Ringer solution (glutamate concentration adjusted to approximately 5% basal stimulation of the maximal possible glutamate effect) is added and the kinetic Ca2+ response of the wells was measured for the modulation effect.
The peak height of the Ca release related fluorescence signal (9-66) is used for the EC50. The EC50 of the modulation is calculated over a nonlinear regression with GraphPad Prism (Table 1).

T1 sequence (P41594 21-1212): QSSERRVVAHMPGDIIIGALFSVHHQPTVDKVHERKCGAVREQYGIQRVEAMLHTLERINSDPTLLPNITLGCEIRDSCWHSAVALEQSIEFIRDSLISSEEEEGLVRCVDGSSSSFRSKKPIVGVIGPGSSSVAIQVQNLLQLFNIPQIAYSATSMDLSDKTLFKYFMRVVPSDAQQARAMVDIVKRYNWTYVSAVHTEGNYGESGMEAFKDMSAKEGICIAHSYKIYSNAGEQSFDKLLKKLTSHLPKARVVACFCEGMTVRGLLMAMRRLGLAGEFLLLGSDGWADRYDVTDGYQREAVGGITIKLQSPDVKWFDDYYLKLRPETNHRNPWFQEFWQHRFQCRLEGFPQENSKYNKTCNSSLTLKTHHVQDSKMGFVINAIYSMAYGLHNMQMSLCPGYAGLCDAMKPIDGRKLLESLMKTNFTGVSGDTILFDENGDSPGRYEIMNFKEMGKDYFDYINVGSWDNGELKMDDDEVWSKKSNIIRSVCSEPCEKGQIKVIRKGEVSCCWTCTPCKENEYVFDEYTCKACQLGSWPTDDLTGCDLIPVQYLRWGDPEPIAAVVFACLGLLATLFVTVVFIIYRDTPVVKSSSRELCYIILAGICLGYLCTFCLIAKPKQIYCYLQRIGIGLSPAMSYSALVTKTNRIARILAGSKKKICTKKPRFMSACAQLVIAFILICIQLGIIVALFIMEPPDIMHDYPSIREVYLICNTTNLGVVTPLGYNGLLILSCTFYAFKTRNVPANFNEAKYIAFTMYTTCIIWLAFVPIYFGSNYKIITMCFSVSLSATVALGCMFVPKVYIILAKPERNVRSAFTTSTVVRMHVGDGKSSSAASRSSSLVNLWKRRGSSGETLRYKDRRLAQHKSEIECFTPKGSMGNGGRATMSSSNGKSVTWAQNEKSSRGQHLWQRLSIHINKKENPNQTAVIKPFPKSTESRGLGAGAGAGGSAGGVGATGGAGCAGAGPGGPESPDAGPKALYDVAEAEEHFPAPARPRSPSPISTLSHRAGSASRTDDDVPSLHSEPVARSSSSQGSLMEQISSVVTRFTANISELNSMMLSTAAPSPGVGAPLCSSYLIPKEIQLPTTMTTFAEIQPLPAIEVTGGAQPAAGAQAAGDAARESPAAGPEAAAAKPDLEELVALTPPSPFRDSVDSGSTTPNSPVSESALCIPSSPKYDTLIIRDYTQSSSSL

SMILES: Cc1nc2c(o1)CN(C(=O)Cn1nc(-c3ccccc3)cc1-c1ccccc1)CC2 [Example 7.01.002]
EC50: 592 nM

SMILES: Cc1csc(N2CCN(C(=O)Cn3nc(-c4ccccc4)cc3-c3ccccc3)CC2)n1 [Example 7.01.003]
EC50: 1780 nM

SMILES: COc1ccc2c(c1)CN(C(=O)Cn1nc(-c3ccccc3)cc1-c1ccccc1)C2 [Example 7.01.004]
EC50: 390 nM

SMILES: Cc1nc2c(s1)CN(C(=O)Cn1nc(-c3ccccc3)cc1-c1ccccc1)C2 [Example 7.01.005]
EC50: 381 nM

SMILES: COc1ccc2c(c1)CN(C(=O)Cn1nc(-c3ccccc3)cc1-c1ccccc1)CC2 [Example 7.01.007]
EC50: 1540 nM

SMILES: O=C(Cn1nc(-c2ccccc2)cc1-c1ccccc1)N1CCc2cc(C(F)(F)F)ccc2C1 [Example 7.01.010]
EC50: 695 nM

SMILES: C=CCNC(=O)Nc1nc2c(s1)CN(C(=O)Cn1nc(-c3ccccc3)cc1-c1ccccc1)CC2 [Example 7.01.012]
EC50: 829 nM

SMILES: COc1ccc2c(c1)CCN(C(=O)Cn1nc(-c3ccccc3)cc1-c1ccccc1)C2 [Example 7.01.018]
EC50: 538 nM

SMILES: CC(=O)Nc1nc2c(s1)CCN(C(=O)Cn1nc(-c3ccccc3)cc1-c1ccccc1)CC2 [Example 7.01.021]
EC50: 1530 nM

SMILES: COC(=O)c1ccc2c(c1)CCN(C(=O)Cn1nc(-c3ccccc3)cc1-c1ccccc1)C2 [Example 7.01.022]
EC50: 511 nM

SMILES: Nc1nc2c(s1)CCN(C(=O)Cn1nc(-c3ccccc3)cc1-c1ccccc1)CC2 [Example 7.01.023]
EC50: 166 nM

SMILES: CC1CN(C(=O)Cn2nc(-c3ccccc3)cc2-c2ccccc2)CC(C)N1C(=O)OCc1ccccc1 (stereo not drawn) [Example 7.01.025]
EC50: 1870 nM

SMILES: CC(C)NC(=O)Nc1nc2c(s1)CN(C(=O)Cn1nc(-c3ccccc3)cc1-c1ccccc1)CC2 [Example 7.01.028]
EC50: 1300 nM

SMILES: CC(C)c1ncc2c(n1)CCN(C(=O)Cn1nc(-c3ccccc3)cc1-c1ccccc1)C2 [Example 7.01.029]
EC50: 796 nM

SMILES: O=C(Cn1nc(-c2ccccc2)cc1-c1ccccc1)N1Cc2nc(-c3ccccc3)sc2C1 [Example 7.01.032]
EC50: 710 nM

SMILES: O=C(Cn1nc(-c2ccccc2)cc1-c1ccccc1)N1CCN(c2nnc(C(F)(F)F)s2)CC1 [Example 7.01.037]
EC50: 188 nM

SMILES: Cc1nc2c(s1)CN(C(=O)Cn1nc(-c3ccccc3)cc1-c1ccccc1)C2 [Example 7.01.038]
EC50: 359 nM

SMILES: CCNC(=O)Nc1nc2c(s1)CN(C(=O)Cn1nc(-c3ccccc3)cc1-c1ccccc1)CC2 [Example 7.01.041]
EC50: 1550 nM

SMILES: O=C(Cn1nc(-c2ccccc2)cc1-c1ccccc1)N1CCN(c2nnc(C(F)(F)F)s2)CC1 [Example 7.01.042]
EC50: 285 nM

SMILES: O=C(Cn1nc(-c2ccccc2)cc1-c1ccccc1)N1CCN(c2nccs2)CC1 [Example 7.01.043]
EC50: 40 nM

SMILES: O=C(Cn1nc(-c2ccccc2)cc1-c1ccccc1)N1CCc2c(cccc2C(F)(F)F)C1 [Example 7.01.045]
EC50: 689 nM

SMILES: Cc1cc(-c2cc(-c3ccccc3)n(CC(=O)N3CCc4cn[nH]c4CC3)n2)ccc1F [Example 7.01.052]
EC50: 31 nM

SMILES: CCc1cc(-c2ccc(F)c(C)c2)nn1CC(=O)N1CCc2nc(OC)sc2CC1 [Example 7.01.054]
EC50: 53 nM

SMILES: COCc1cc(-c2ccc(F)c(C)c2)nn1CC(=O)N1CCc2nc(C)sc2CC1 [Example 7.01.055]
EC50: 53 nM

SMILES: COCc1cc(-c2ccc(F)c(C)c2)nn1CC(=O)N1CCc2nc(N)sc2CC1 [Example 7.01.056]
EC50: 253 nM

SMILES: COCc1cc(-c2ccc(F)c(C)c2)nn1CC(=O)N1CCc2nc(C)oc2C1 [Example 7.01.057]
EC50: 740 nM

SMILES: COCc1cc(-c2ccc(F)c(C)c2)nn1CC(=O)N1Cc2nc(C)sc2C1 [Example 7.01.058]
EC50: 279 nM

SMILES: Cc1nc2c(s1)CCN(C(=O)Cn1nc(-c3ccc(F)c(C)c3)cc1C)CC2 [Example 7.01.059]
EC50: 32 nM

SMILES: Cc1cc(-c2cc(C)n(CC(=O)N3CCc4nc(N)sc4CC3)n2)ccc1F [Example 7.01.060]
EC50: 101 nM

SMILES: Cc1nc2c(o1)CN(C(=O)Cn1nc(-c3ccc(F)c(C)c3)cc1C)CC2 [Example 7.01.061]
EC50: 163 nM

SMILES: Cc1nc2c(s1)CN(C(=O)Cn1nc(-c3ccc(F)c(C)c3)cc1C)C2 [Example 7.01.062]
EC50: 242 nM

SMILES: Cc1nnc(N2CCN(C(=O)Cn3nc(-c4ccc(F)c(C)c4)cc3C)CC2)o1 [Example 7.01.063]
EC50: 334 nM

Next, values leading:

EC50: 1430 nM
SMILES: O=C(Cn1nc(-c2ccccc2)cc1-c1ccccc1)N1CCC(c2ncc(Cl)cn2)CC1 [Example 7.01.001, 2-(3,5-diphenyl-pyrazol-1-yl)-1-(4-(5-chloro-pyrimidin-2-yl)-1-piperidinyl)-ethanon]

EC50: 870 nM
SMILES: O=C(Cn1nc(-c2ccccc2)cc1-c1ccccc1)N1CCc2cn[nH]c2CC1 [Example 7.01.006]

EC50: 1180 nM
SMILES: COc1ccc2c(c1)CCN(C(=O)Cn1nc(-c3ccccc3)cc1-c1ccccc1)CC2 [Example 7.01.008]

EC50: 1540 nM
SMILES: O=C(Cn1nc(-c2ccccc2)cc1-c1ccccc1)N1CCc2c(F)cccc2C1 [Example 7.01.009]

EC50: 1970 nM
SMILES: COc1ccccc1N1CCN(C(=O)Cn2nc(-c3ccccc3)cc2-c2ccccc2)CC1=O [Example 7.01.011]

EC50: 617 nM
SMILES: O=C(Cn1nc(-c2ccccc2)cc1-c1ccccc1)N1CCN(c2cccc(Br)c2)C(=O)C1 [Example 7.01.013]

EC50: 463 nM
SMILES: O=C(Cn1nc(-c2ccccc2)cc1-c1ccccc1)N1CCN(c2ccccc2F)C(=O)C1 [Example 7.01.014]

EC50: 1810 nM
SMILES: COc1cccc2c1CCN(C(=O)Cn1nc(-c3ccccc3)cc1-c1ccccc1)C2 [Example 7.01.015]

EC50: 143 nM
SMILES: O=C(Cn1nc(-c2ccccc2)cc1-c1ccccc1)N1CCN(c2noc3ccccc23)CC1 [Example 7.01.016]

EC50: 1660 nM
SMILES: O=C(Cn1nc(-c2ccccc2)cc1-c1ccccc1)N1CCN(c2ccc(F)cc2)C(=O)C1 [Example 7.01.019]

EC50: 258 nM
SMILES: COc1cccc(N2CCN(C(=O)Cn3nc(-c4ccccc4)cc3-c3ccccc3)CC2=O)c1 [Example 7.01.020]

EC50: 1160 nM
SMILES: O=C(Cn1nc(-c2ccccc2)cc1-c1ccccc1)N1CCc2c(F)ccc(F)c2C1 [Example 7.01.024]

EC50: 503 nM
SMILES: O=C(Cn1nc(-c2ccccc2)cc1-c1ccccc1)N1CCc2ncnc(-c3ccccc3)c2CC1 [Example 7.01.026]

EC50: 1020 nM
SMILES: O=C(Cn1nc(-c2ccccc2)cc1-c1ccccc1)N1CCc2cc(F)ccc2C1 [Example 7.01.027]

EC50: 484 nM
SMILES: COC(=O)c1ccc2c(c1)CCN(C(=O)Cn1nc(-c3ccccc3)cc1-c1ccccc1)CC2 [Example 7.01.030]

EC50: 1870 nM
SMILES: N#Cc1ccc2c(c1)CN(C(=O)Cn1nc(-c3ccccc3)cc1-c1ccccc1)CC2 [Example 7.01.031]

EC50: 1530 nM
SMILES: Nc1nnc(C2CCN(C(=O)Cn3nc(-c4ccccc4)cc3-c3ccccc3)CC2)o1 [Example 7.01.033]

EC50: 398 nM
SMILES: O=C(Cn1nc(-c2ccccc2)cc1-c1ccccc1)N1CCN(c2cccc(F)c2)C(=O)C1 [Example 7.01.034]

EC50: 205 nM
SMILES: COc1cccc(N2CCN(C(=O)Cn3nc(-c4ccccc4)cc3-c3ccccc3)CC2=O)c1 [Example 7.01.035]

EC50: 1320 nM
SMILES: Nc1ccc2c(c1)CCN(C(=O)Cn1nc(-c3ccccc3)cc1-c1ccccc1)CC2 [Example 7.01.036]

EC50: 752 nM
SMILES: O=C(Cn1nc(-c2ccccc2)cc1-c1ccccc1)N1CCc2c(Cl)cccc2C1 [Example 7.01.039]

EC50: 1850 nM
SMILES: O=C(Cn1nc(-c2ccccc2)cc1-c1ccccc1)N1CCC(c2nccs2)CC1 [Example 7.01.044]

EC50: 1000 nM
SMILES: N#Cc1ccc2c(c1)CCN(C(=O)Cn1nc(-c3ccccc3)cc1-c1ccccc1)C2 [Example 7.01.046]

EC50: 789 nM
SMILES: O=C(Cn1nc(-c2ccccc2)cc1-c1ccccc1)N1CCC(c2nnc(-c3ccc(F)cc3)o2)CC1 [Example 7.01.047]

EC50: 573 nM
SMILES: O=C(Cn1nc(-c2ccccc2)cc1-c1ccccc1)N1CCN(c2nccc3sccc23)CC1 [Example 7.01.048]

EC50: 652 nM
SMILES: O=C(Cn1nc(-c2ccccc2)cc1-c1ccccc1)N1CCN(c2nccc3occc23)CC1 [Example 7.01.049]

EC50: 1440 nM
SMILES: Cc1ccc(NC2CCN(C(=O)Cn3nc(-c4ccccc4)cc3-c3ccccc3)CC2)c(C)c1 [Example 7.01.051]

EC50: 914 nM
SMILES: N#Cc1ccc(Cl)cc1NC1CCN(C(=O)Cn2nc(-c3ccccc3)cc2-c2ccccc2)CC1 [Example 7.01.053]

— US8741892B2, “Compounds” (Boehringer Ingelheim International GmbH, priority 2011, dated 2014)
